Laboratory results as given in PubChem BioAssay AID2060623 (Molecular Pharmacology Branch, DTP, NCI, 2025).

System: 227483-062-R1-J1-PDC complex spheroids with HUVEC/MSC, viability
Test: Anticancer human tumor 227483-062-R1-J1-PDC patient-derived pancreatic carcinoma cell line growth inhibition [CLK]
Conditions: for IC50: curve of first compound; for viability, T/C: stronger effect = lower value
Summary of the method: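 Patient-derived tumor cells grown as complex spheroids with HUVEC endothelial cells and mesenchymal stem cells, treated with drug combinations. Concentrations descend in half-log steps from near clinical Cmax, or from 10 microM if Cmax unknown.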
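Further: spheroids exposed to compounds for seven days before readout.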
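Wherever viability, T/C is given: percent of DMSO vehicle control luminescence as 100% viability.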

CC(C)CC(NC(=O)C(Cc1ccccc1)NC(=O)c1cnccn1)B(O)O (centres undefined) + CN1CCN(c2cc(C(=O)Nc3cc4cc(-c5cnn(C)c5)ccc4cn3)ccn2)CC1
IC50 (second compound 0.0316 µM): 1.54 nM
IC50 (second compound 0.1 µM): 1.02 nM
IC50 (second compound 0.316 µM): < 0.949 nM
IC50 (second compound 1 µM): < 0.949 nM
IC50 (second compound 3.16 µM): < 0.949 nM
IC50 (second compound 10 µM): < 0.949 nM
viability, T/C (second compound 0.0316 µM, first compound 0.000949 µM): 84.2%
viability, T/C (second compound 0.0316 µM, first compound 0.003 µM): 2.58%
viability, T/C (second compound 0.0316 µM, first compound 0.00949 µM): 0.65%
viability, T/C (second compound 0.0316 µM, first compound 0.03 µM): 1.12%
viability, T/C (second compound 0.0316 µM, first compound 0.0949 µM): 0.45%
viability, T/C (second compound 0.0316 µM, first compound 0.3 µM): 0.74%
viability, T/C (second compound 0.1 µM, first compound 0.000949 µM): 53.2%
viability, T/C (second compound 0.1 µM, first compound 0.003 µM): 2.83%
viability, T/C (second compound 0.1 µM, first compound 0.00949 µM): 1.48%
viability, T/C (second compound 0.1 µM, first compound 0.03 µM): 5.65%
viability, T/C (second compound 0.1 µM, first compound 0.0949 µM): 0.4%
viability, T/C (second compound 0.1 µM, first compound 0.3 µM): 0.25%
viability, T/C (second compound 0.316 µM, first compound 0.000949 µM): 2.47%
viability, T/C (second compound 0.316 µM, first compound 0.003 µM): 3.26%
viability, T/C (second compound 0.316 µM, first compound 0.00949 µM): 0.59%
viability, T/C (second compound 0.316 µM, first compound 0.03 µM): 0.21%
viability, T/C (second compound 0.316 µM, first compound 0.0949 µM): 0.29%
viability, T/C (second compound 0.316 µM, first compound 0.3 µM): 0.75%
viability, T/C (second compound 1 µM, first compound 0.000949 µM): 3.27%
viability, T/C (second compound 1 µM, first compound 0.003 µM): 1.6%
viability, T/C (second compound 1 µM, first compound 0.00949 µM): 0.47%
viability, T/C (second compound 1 µM, first compound 0.03 µM): 2.61%
viability, T/C (second compound 1 µM, first compound 0.0949 µM): 0.34%
viability, T/C (second compound 1 µM, first compound 0.3 µM): 0.4%
viability, T/C (second compound 3.16 µM, first compound 0.000949 µM): 5.84%
viability, T/C (second compound 3.16 µM, first compound 0.003 µM): 2.27%
viability, T/C (second compound 3.16 µM, first compound 0.00949 µM): 1.43%
viability, T/C (second compound 3.16 µM, first compound 0.03 µM): 0.39%
viability, T/C (second compound 3.16 µM, first compound 0.0949 µM): 0.63%
viability, T/C (second compound 3.16 µM, first compound 0.3 µM): 1.73%
viability, T/C (second compound 10 µM, first compound 0.000949 µM): 3.7%
viability, T/C (second compound 10 µM, first compound 0.003 µM): 1.18%
viability, T/C (second compound 10 µM, first compound 0.00949 µM): 0.37%
viability, T/C (second compound 10 µM, first compound 0.03 µM): 1%
viability, T/C (second compound 10 µM, first compound 0.0949 µM): 0.3%
viability, T/C (second compound 10 µM, first compound 0.3 µM): 0.21%

O=C(c1cc(Cc2n[nH]c(=O)c3ccccc23)ccc1F)N1CCN(C(=O)C2CC2)CC1 + CNC(=O)c1ccc(Nc2nc(OC3CCCC3)c3c(-c4ccc5nc(C)oc5c4)c[nH]c3n2)c(OC)c1
IC50 (second compound 0.0316 µM): > 10000 nM
IC50 (second compound 0.1 µM): > 10000 nM
IC50 (second compound 0.316 µM): > 10000 nM
IC50 (second compound 1 µM): > 10000 nM
IC50 (second compound 3.16 µM): 44.9 nM
IC50 (second compound 10 µM): < 31.6 nM
viability, T/C (second compound 0.0316 µM, first compound 0.0316 µM): 86.9%
viability, T/C (second compound 0.0316 µM, first compound 0.1 µM): 84.9%
viability, T/C (second compound 0.0316 µM, first compound 0.316 µM): 119%
viability, T/C (second compound 0.0316 µM, first compound 1 µM): 93.1%
viability, T/C (second compound 0.0316 µM, first compound 3.16 µM): 100%
viability, T/C (second compound 0.0316 µM, first compound 10 µM): 98.4%
viability, T/C (second compound 0.1 µM, first compound 0.0316 µM): 86.1%
viability, T/C (second compound 0.1 µM, first compound 0.1 µM): 117%
viability, T/C (second compound 0.1 µM, first compound 0.316 µM): 89.3%
viability, T/C (second compound 0.1 µM, first compound 1 µM): 89.5%
viability, T/C (second compound 0.1 µM, first compound 3.16 µM): 91.5%
viability, T/C (second compound 0.1 µM, first compound 10 µM): 91.3%
viability, T/C (second compound 0.316 µM, first compound 0.0316 µM): 86.8%
viability, T/C (second compound 0.316 µM, first compound 0.1 µM): 92.9%
viability, T/C (second compound 0.316 µM, first compound 0.316 µM): 78.5%
viability, T/C (second compound 0.316 µM, first compound 1 µM): 89.3%
viability, T/C (second compound 0.316 µM, first compound 3.16 µM): 95.5%
viability, T/C (second compound 0.316 µM, first compound 10 µM): 99%
viability, T/C (second compound 1 µM, first compound 0.0316 µM): 63.3%
viability, T/C (second compound 1 µM, first compound 0.1 µM): 60.9%
viability, T/C (second compound 1 µM, first compound 0.316 µM): 65.4%
viability, T/C (second compound 1 µM, first compound 1 µM): 61.1%
viability, T/C (second compound 1 µM, first compound 3.16 µM): 80.1%
viability, T/C (second compound 1 µM, first compound 10 µM): 66.3%
viability, T/C (second compound 3.16 µM, first compound 0.0316 µM): 50.9%
viability, T/C (second compound 3.16 µM, first compound 0.1 µM): 54.5%
viability, T/C (second compound 3.16 µM, first compound 0.316 µM): 40.5%
viability, T/C (second compound 3.16 µM, first compound 1 µM): 48.9%
viability, T/C (second compound 3.16 µM, first compound 3.16 µM): 50.3%
viability, T/C (second compound 3.16 µM, first compound 10 µM): 47.7%
viability, T/C (second compound 10 µM, first compound 0.0316 µM): 37%
viability, T/C (second compound 10 µM, first compound 0.1 µM): 34%
viability, T/C (second compound 10 µM, first compound 0.316 µM): 35.3%
viability, T/C (second compound 10 µM, first compound 1 µM): 42.1%
viability, T/C (second compound 10 µM, first compound 3.16 µM): 42.3%
viability, T/C (second compound 10 µM, first compound 10 µM): 39%
